Results on 5 compounds are retold here after ChEMBL document CHEMBL1275486, “Kinetic characterization of VIM-7, a divergent member of the VIM metallo-beta-lactamase family” (Antimicrob Agents Chemother, 2008).

The subject of assay [1] is Escherichia coli. Briefly: Activity of Escherichia coli beta-lactamase VIM-1 by spectrophotometry.
Assay [2] relates to Escherichia coli. Kind of assay: Ratio of Kcat to Km for Escherichia coli beta-lactamase VIM-1 by spectrophotometry.

For orientation: Km means the concentration of substrate that gives half-maximal velocity. For orientation: kcat means the maximal rate divided by the concentration of active sites. As a reminder, the kcat/Km is the turnover number divided by the Michaelis constant. Turning to `O=C(Cc1cccs1)N[C@@H]1C(=O)N2C(C(=O)[O-])=C(C[n+]3ccccc3)CS[C@H]12`, in the assay with Escherichia coli [1], the Km is 30 µM and the kcat amounted to 315 s⁻¹. Besides, the kcat/Km with Escherichia coli [2] was 1.05e+07 M⁻¹ s⁻¹.

Take `CC(C)(O/N=C(\C(=O)N[C@@H]1C(=O)N2C(C(=O)[O-])=C(C[n+]3ccccc3)CS[C@H]12)c1csc(N)n1)C(=O)O`: in the assay on Escherichia coli [1], the Km was 800 µM and the catalytic constant (kcat) turned out to be 60 s⁻¹. The kcat/Km with Escherichia coli [2] was found to be 75000 M⁻¹ s⁻¹.

With `CO/N=C(\C(=O)N[C@@H]1C(=O)N2C(C(=O)O)=C(COC(C)=O)CS[C@H]12)c1csc(N)n1`, in the assay with Escherichia coli [1], the Km stood at 250 µM and the kcat is 170 s⁻¹. Besides, the catalytic efficiency (kcat/Km) in the assay on Escherichia coli [2] was determined as 680000 M⁻¹ s⁻¹.

Turning to `C[C@@H](O)[C@H]1C(=O)N2C(C(=O)O)=C(SCCNC=N)C[C@H]12`, in the assay on Escherichia coli [1], the Km came to 1.5 µM and the kcat came out at 0.2 s⁻¹. Moreover, the kcat/Km in the assay with Escherichia coli [2] stood at 130000 M⁻¹ s⁻¹.

`CC1(C)[C@H](C(=O)O)N2C(=O)C[C@H]2S1(=O)=O`: in the assay with Escherichia coli [1], the Km worked out at 200 µM and the catalytic constant (kcat) turned out to be 10 s⁻¹. Moreover, the kcat/Km with Escherichia coli [2] was determined as 50000 M⁻¹ s⁻¹.
